Consider one cell line from the supplement of paper PMC10307832.

Holding throughout (test): relative viability (nuclei count vs DMSO), 5 days (fraction); higher = more cells survive
Compound in one assay: CN1CCN(CC1)C2=CC(=C(C=C2)NC3=NC=C4C(=N3)N(C5=CC=CC=C5C(=O)N4C)C)OC [XMD8-85]
Put shortly: (§1)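 Viability here means nuclei in treated wells divided by nuclei in vehicle wells, reported as the median across plates. Only plates with control CV below 25% and at least one doubling passed. Lung cancer cell lines in 1536-well plates were exposed to five √10-spaced library-drug doses for 5 days and counted from 4× Hoechst images in MetaXpress.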

Compound in a further assay: O=C(O)C(Cc1ccccc1[N+](=O)[O-])=NNc1nc(-c2ccc(Cl)c(Cl)c2)cs1 (mixture of isomers) [4EGI-1]
Summed up: as §1

Compound in the assay “XMD8-85 + OSI-027”: CN1CCN(CC1)C2=CC(=C(C=C2)NC3=NC=C4C(=N3)N(C5=CC=CC=C5C(=O)N4C)C)OC [XMD8-85] + COc1cccc2cc(-c3nc([C@H]4CC[C@H](C(=O)O)CC4)n4ncnc(N)c34)[nH]c12 [OSI-027] (partner 0.5 µM)
Put shortly: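 Each reported value is a median over duplicate plates. It expresses relative viability: treated-well nuclei count divided by vehicle-well nuclei count. Lung cancer cell lines in 1536-well plates were dosed by pin tool a day after seeding, alone with one drug or with a fixed anchor-drug dose plus five library-drug doses (not always all listed) in √10 steps, and nuclei were counted after 5 days.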

As for NCI-H1792, the relative viability in the assay with XMD8-85 (0.253 µM) was found to be 0.904; with XMD8-85 (2.53 µM), 1.14; with XMD8-85 (8 µM), 0.704; with 4EGI-1 (0.5 µM) it was 0.99; with 4EGI-1 (1.581 µM), 1.1; in the assay with 4EGI-1 (5 µM), 0.941. Moreover, the relative viability in the assay with 4EGI-1 (15.81 µM) was found to be 0.903; in the assay with 4EGI-1 (50 µM), 0.608; with XMD8-85 + OSI-027 (first compound 0.253 µM), 0.856; with XMD8-85 + OSI-027 (first compound 2.53 µM) it was 0.981; in the assay with XMD8-85 + OSI-027 (first compound 8 µM), 0.896.
